Results reported in ChEMBL document CHEMBL1201862, “PubChem BioAssay data set” (2004).
Activity calls are given as the source filed them.

Assays:
[1] = viability loss in THP-1 monocytes – THP-1 cells, cytotoxicity control for Vif-APOBEC3G degradation inhibitor project, dose response (AID 1117359); assay type: functional; details: THP-1
SN12K1 = experiment: cells; assay type: functional; details: Homo sapiens
P388/ADR = experiment: cells; assay type: functional; details: Mus musculus
P388 = experiment: cells; assay type: functional; details: Mus musculus
Genome polyprotein = Genome polyprotein (dengue virus type 2, UniProt P29990); experiment: flavivirus cap methylation enzyme inhibition – biochemical, confirmation dose response, primary screen (AID 588689); assay type: functional
[2] = molecular target: T1, Replicative DNA helicase DnaB (Mycobacterium tuberculosis, UniProt P9WMR3); experiment: DnaB intein splicing inhibitors, dose response, biochemical, cell-free fluorescence (AID 449749); assay type: functional
T1 sequence (P9WMR3 whole entry): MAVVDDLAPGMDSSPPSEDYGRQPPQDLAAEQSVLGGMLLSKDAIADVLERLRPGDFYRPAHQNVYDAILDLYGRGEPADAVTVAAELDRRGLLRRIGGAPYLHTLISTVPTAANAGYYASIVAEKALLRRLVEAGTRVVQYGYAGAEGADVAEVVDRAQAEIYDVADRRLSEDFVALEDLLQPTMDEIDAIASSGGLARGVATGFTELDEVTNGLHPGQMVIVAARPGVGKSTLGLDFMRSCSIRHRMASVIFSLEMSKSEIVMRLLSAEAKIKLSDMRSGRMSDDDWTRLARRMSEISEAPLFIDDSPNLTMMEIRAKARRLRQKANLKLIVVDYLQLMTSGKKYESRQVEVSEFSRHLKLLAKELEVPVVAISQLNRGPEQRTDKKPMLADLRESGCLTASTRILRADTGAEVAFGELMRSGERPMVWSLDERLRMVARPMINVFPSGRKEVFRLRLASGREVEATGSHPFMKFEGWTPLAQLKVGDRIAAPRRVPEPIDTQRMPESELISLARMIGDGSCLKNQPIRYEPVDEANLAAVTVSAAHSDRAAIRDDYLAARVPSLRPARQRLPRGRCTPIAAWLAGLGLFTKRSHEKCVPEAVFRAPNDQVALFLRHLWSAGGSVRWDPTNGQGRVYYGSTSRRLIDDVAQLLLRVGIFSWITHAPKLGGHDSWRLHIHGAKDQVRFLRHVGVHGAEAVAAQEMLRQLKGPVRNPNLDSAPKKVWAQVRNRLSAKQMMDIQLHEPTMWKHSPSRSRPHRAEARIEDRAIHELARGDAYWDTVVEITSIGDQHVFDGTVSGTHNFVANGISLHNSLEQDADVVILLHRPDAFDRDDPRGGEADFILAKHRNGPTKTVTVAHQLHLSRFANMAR

Protein RecA = molecular target: T2, Protein RecA (Mycobacterium tuberculosis, UniProt P9WHJ3); experiment: Fluorescence Cell-Free Homogeneous Dose Retest to Identify Inhibitors of RecA-Intein Splicing Activity. [Related pubchem assays (depositor defined):AID2097, AID2223, AID489010, AID492950]; assay type: functional
T2 sequence (P9WHJ3 whole entry): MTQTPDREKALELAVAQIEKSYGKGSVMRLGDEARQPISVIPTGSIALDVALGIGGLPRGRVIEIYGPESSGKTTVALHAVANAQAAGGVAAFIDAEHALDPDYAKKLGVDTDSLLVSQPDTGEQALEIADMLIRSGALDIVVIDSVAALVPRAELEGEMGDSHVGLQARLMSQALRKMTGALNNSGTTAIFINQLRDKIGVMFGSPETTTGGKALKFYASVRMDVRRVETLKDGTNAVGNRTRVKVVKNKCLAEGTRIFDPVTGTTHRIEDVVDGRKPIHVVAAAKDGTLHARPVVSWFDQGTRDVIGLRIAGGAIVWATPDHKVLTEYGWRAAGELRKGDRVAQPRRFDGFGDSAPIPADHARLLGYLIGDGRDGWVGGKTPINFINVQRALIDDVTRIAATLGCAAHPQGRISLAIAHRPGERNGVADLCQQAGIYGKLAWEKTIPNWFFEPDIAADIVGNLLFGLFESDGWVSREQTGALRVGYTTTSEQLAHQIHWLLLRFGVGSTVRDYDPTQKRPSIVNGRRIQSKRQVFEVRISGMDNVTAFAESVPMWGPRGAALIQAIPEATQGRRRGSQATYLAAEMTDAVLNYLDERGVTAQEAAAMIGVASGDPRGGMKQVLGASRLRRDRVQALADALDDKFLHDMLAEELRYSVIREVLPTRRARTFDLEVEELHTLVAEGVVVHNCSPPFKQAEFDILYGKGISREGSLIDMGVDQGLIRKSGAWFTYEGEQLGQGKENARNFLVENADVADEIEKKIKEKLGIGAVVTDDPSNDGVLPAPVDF

[3] = molecular target: Peroxisome proliferator-activated receptor gamma/Nuclear receptor coactivator 2 (Homo sapiens, UniProt P37231); assay type: functional;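 also: agonist potency for raising coactivator recruitment to the receptor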
Sequence of Peroxisome proliferator-activated receptor gamma/Nuclear receptor coactivator 2 (P37231 whole entry): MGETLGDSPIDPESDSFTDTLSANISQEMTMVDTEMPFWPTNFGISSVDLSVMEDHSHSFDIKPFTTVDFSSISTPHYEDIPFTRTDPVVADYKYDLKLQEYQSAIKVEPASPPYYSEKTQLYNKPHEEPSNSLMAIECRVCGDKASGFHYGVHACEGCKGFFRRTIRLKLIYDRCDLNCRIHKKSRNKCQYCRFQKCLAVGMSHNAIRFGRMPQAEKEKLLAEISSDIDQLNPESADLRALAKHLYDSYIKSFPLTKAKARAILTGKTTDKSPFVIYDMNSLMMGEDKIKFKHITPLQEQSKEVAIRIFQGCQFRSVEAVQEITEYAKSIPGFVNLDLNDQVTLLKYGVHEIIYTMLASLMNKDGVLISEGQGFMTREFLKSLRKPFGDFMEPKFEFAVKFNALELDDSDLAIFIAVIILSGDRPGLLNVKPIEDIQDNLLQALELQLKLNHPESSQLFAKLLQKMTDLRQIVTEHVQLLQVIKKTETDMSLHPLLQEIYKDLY
Sequence of Peroxisome proliferator-activated receptor gamma/Nuclear receptor coactivator 2 (Q15596 whole entry, further chain): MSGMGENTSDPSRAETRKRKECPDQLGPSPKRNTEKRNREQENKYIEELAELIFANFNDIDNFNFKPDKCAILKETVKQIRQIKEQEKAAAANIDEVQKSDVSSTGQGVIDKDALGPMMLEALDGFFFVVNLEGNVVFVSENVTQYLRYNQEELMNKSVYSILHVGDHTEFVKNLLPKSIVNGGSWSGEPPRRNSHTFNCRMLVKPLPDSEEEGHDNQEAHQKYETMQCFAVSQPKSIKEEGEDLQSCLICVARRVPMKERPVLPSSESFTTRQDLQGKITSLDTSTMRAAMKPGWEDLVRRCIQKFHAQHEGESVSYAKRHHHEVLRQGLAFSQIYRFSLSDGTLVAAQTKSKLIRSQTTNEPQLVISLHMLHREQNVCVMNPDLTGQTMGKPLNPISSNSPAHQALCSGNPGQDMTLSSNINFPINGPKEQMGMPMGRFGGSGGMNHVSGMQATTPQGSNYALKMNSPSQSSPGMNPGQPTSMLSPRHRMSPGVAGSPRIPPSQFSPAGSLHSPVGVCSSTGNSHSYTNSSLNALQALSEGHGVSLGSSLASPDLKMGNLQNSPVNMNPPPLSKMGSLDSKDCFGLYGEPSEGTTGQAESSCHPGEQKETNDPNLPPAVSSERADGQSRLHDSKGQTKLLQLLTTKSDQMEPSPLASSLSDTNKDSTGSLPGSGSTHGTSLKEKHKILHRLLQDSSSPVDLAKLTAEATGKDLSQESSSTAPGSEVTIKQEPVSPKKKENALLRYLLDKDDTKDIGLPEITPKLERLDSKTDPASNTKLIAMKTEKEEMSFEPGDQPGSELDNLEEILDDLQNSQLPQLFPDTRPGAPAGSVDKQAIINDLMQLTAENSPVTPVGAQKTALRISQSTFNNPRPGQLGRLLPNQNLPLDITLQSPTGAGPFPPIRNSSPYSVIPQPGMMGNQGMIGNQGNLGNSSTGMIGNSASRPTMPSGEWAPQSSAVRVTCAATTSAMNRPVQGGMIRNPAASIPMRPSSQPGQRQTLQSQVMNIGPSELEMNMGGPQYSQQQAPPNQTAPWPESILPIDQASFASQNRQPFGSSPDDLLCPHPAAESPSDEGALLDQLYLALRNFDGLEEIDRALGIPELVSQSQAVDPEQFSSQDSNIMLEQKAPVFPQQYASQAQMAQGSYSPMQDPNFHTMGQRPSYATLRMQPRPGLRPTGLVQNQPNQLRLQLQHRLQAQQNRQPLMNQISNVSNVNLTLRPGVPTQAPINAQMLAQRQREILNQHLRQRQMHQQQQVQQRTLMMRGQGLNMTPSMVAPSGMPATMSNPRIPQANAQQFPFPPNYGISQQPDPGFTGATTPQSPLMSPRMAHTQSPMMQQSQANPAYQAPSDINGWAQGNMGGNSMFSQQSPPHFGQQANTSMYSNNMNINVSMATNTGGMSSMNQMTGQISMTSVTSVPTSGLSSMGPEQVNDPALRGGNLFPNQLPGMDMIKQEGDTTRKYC

[4] = molecular target: Peroxisome proliferator-activated receptor gamma/Nuclear receptor coactivator 3 (Homo sapiens, UniProt P37231); assay type: functional;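 also: agonist potency for raising coactivator recruitment to the receptor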
[5] = molecular target: Peroxisome proliferator-activated receptor gamma/Nuclear receptor coactivator 1 (Homo sapiens, UniProt P37231); assay type: functional;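 also: agonist potency as compounds enhance coactivator SRC-1 recruitment to PPARgamma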
Sequence of Peroxisome proliferator-activated receptor gamma/Nuclear receptor coactivator 1 (P37231 whole entry): as the sequence (P37231 whole entry) above
Sequence of Peroxisome proliferator-activated receptor gamma/Nuclear receptor coactivator 1 (Q15788 whole entry, further chain): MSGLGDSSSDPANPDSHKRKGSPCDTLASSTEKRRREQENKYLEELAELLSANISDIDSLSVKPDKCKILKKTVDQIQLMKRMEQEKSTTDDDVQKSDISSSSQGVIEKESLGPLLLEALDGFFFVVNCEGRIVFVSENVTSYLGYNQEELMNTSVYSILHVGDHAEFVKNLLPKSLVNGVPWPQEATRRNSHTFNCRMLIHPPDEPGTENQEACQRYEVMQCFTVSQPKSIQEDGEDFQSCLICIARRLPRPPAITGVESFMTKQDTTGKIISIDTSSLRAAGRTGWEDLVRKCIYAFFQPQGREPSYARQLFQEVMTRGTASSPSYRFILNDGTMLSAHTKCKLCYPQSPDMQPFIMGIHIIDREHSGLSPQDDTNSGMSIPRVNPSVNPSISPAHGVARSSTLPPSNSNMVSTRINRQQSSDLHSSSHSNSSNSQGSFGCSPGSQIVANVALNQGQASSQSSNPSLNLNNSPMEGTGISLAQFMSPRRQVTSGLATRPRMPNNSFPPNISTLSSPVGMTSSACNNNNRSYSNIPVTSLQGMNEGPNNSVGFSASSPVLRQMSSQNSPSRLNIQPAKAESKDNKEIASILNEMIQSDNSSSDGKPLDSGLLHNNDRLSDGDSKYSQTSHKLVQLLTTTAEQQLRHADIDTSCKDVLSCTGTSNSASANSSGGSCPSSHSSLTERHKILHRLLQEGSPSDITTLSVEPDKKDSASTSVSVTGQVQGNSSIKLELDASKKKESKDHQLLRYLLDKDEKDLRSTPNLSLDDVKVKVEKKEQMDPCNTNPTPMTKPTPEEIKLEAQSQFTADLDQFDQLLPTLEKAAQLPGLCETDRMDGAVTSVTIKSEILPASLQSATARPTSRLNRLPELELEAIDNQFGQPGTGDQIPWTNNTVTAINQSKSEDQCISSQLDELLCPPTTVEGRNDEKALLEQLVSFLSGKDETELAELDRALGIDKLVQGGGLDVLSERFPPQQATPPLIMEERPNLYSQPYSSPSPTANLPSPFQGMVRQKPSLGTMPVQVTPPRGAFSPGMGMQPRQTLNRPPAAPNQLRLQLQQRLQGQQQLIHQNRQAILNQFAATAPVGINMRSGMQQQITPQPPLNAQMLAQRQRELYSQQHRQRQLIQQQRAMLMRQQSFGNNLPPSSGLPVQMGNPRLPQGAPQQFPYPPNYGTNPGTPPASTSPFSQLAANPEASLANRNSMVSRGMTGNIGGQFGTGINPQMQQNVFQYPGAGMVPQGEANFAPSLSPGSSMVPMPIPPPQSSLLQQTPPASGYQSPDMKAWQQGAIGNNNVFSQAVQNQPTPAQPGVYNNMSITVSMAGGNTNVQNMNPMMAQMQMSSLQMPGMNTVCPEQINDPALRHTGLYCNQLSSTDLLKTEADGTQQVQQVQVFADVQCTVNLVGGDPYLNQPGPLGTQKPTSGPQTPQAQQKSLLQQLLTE

[6] = NIH3T3 cell viability loss – ATP luminescence, mouse fibroblasts, counter-screen, dose response (AID 2010); assay type: functional, cell-based;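 also: cells exposed to compound for about 90 hours before reading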
[7] = Trypanosoma cruzi growth suppression in host cells – NIH3T3 host cells, beta-gal luminescence, confirmation (AID 2044); assay type: functional, cell-based;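 also: intracellular parasites grown in NIH/3T3 mouse fibroblasts as host cells; luminescent beta-galactosidase reporter signal from transgenic T. cruzi replicating inside host cells; inhibitors lower the luminescence signal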
[8] = molecular target: Heat shock protein HSP 90-alpha (Homo sapiens, UniProt P07900); assay type: functional, organism-based
HEK293 [9] = experiment: NOD2 signaling inhibitors in MDP-stimulated cells, cell-based, uHTS, luminescence (AID 2001); assay type: functional; details: Homo sapiens
HEK293 [10] = experiment: cells; assay type: functional, cell-based; details: Homo sapiens
HEK293 [11] = experiment: inhibition of NOD1-driven NF-kB reporter – cell-based, luminescence, uHTS, primary screen (AID 1578); assay type: functional; details: Homo sapiens
HEK293 [12] = experiment: cells; assay type: functional, cell-based; details: Homo sapiens; remark: listed apart in the source
HEK293 [13] = experiment: EBV LMP1 TES2 canonical NF-kB signalling blockers – cell-based, HEK293, luciferase, cherry-pick, dose response (AID 588343); assay type: functional; details: Homo sapiens
[14] = blockade of melanocortin 4 receptor signaling – cell-based, plate reader, cherry pick, counter-screen for LGR2 antagonist project, dose response (AID 743444); assay type: functional;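 also: transfected HEK 293 cells stimulated with alpha-MSH peptide; potency of inhibitors of the alpha-MSH evoked signal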
[15] = blockers of bursicon-stimulated LGR2 cAMP reporter – cell-based, HEK293, CRE-luciferase reporter, cherry pick, set 2, dose response (AID 743343); assay type: functional;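 also: transfected cells were stimulated with diluted bursicon conditioned medium after compound addition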
[16] = toxicity toward HepG2 liver cells – cell-based, plate reader, cherry-pick, antagonist series, cytotoxicity control, dose response (AID 743416); assay type: functional
[17] = A549 cell cytotoxicity, dose response, cytotoxicity control, plate reader, cherry-pick, antagonist series (AID 743412); assay type: functional, cell-based
[18] = viability of uninfected HEp-2 cells – cell-based, HTS, cytotoxicity control for RSV inhibitor project, dose response (AID 2410); assay type: functional; details: human respiratory syncytial virus
[19] = viability loss in HEK293 cells – cell-based, plate reader, cherry-picked samples, cytotoxicity control, dose response (AID 743446); assay type: functional
Paired box protein Pax-8 = Paired box protein Pax-8 (Homo sapiens, UniProt Q06710); experiment: PAX8 transcriptional activity inhibition in RMG-I – RMG-I cells, luciferase, cherry-pick, dose response (AID 687027); assay type: functional, cell-based;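 also: luciferase reporter driven by Pax8 target thyroperoxidase promoter measured by SteadyGlo luminescence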
Sequence of Paired box protein Pax-8 (Q06710 whole entry): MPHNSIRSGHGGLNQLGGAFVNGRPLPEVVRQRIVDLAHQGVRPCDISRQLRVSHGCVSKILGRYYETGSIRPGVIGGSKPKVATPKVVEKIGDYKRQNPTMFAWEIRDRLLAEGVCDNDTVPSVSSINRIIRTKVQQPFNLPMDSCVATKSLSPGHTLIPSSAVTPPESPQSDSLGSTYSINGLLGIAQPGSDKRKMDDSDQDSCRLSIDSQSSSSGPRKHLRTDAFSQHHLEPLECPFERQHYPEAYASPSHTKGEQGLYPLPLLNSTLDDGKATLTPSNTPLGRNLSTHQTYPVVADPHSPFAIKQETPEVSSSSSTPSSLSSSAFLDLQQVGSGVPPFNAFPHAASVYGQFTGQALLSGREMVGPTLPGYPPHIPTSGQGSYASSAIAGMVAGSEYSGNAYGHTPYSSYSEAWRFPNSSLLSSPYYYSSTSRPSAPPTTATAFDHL

[20] = OVCAR8 cell viability loss – plate reader, dry powder samples, PAX8 project, dose response (AID 743197); assay type: functional, cell-based; details: OVCAR-8

## CCCn1c(NC(=O)c2ccco2)nc2ccccc21
[1]
  CC50: > 40 µM (active)

## CC(=O)OC(C)(C)/C=C/C(=O)[C@](C)(O)[C@H]1[C@H](O)C[C@@]2(C)[C@@H]3CC=C4[C@@H](C=C(O)C(=O)C4(C)C)[C@]3(C)C(=O)C[C@]12C [CUCURBITACIN E]
SN12K1
  GI50: 0.0336 µM (active)
P388/ADR
  GI50: 0.0375 µM (active)
P388
  GI50: 0.0379 µM (active)

## CC1=NN(Cc2ccccc2)C(=O)C1C(c1ccc(Cl)cc1)C(C#N)C#N (stereo not given)
Genome polyprotein
  IC50: 55.2 µM (active)
[2]
  AC50: 5.34 µM (active)
Protein RecA
  EC50: 2.5 µM (active)

## O=C(CSc1ncnc2c1nnn2Cc1ccccc1F)N1CCN(c2ccccc2)CC1
[3]
  EC50: > 79.4 µM (not active)
[4]
  EC50: > 79.4 µM (not active)
[2]
  AC50: 3.65 µM (active)
[5]
  EC50: > 79.4 µM (not active)
Protein RecA
  EC50: 5.75 µM (active)

## O=c1c2ccccc2nc(-c2ccc(-c3ccccc3)cc2)n1-c1ccncc1
[6]
  EC50: > 60 µM (not active)
[7]
  EC50: 0.398 µM (active)
[8]
  AC50: 2.73 µM (active)

## CN1CCN(c2ncnc3ccc(Br)cc23)CC1
HEK293 [9]
  IC50: 6.08 µM (active)
HEK293 [10]
  IC50: 4.83 µM (active)
HEK293 [11]
  EC50: 17.8 µM (active)
HEK293 [12]
  IC50: > 20 µM (inactive)

## O=C1C=CN(C2OC(CO)C(O)C2O)C(=O)C1 (stereo not given)
P388/ADR
  GI50: 0.843 µM (active)
P388
  GI50: 0.718 µM (active)

## Cc1cccc(-n2ncc3c(N4CCOCC4)ncnc32)c1
HEK293 [13]
  AC50: 1.36 µM (active)
[14]
  AC50: 3.94 µM (active)
[15]
  AC50: 3.92 µM (active)
[16]
  AC50: > 52 µM (inactive)
[17]
  AC50: > 52 µM (inactive)
[18]
  CC50: 19.1 µM (active)

## CC(OC(=O)c1cc2sccc2n1C)C(=O)NCc1cccs1 (stereo not given)
[3]
  EC50: > 79.4 µM (not active)
[4]
  EC50: > 79.4 µM (not active)
[5]
  EC50: > 79.4 µM (not active)

## COc1ccc(-c2cc(-c3cccs3)c(C#N)c(SCC(=O)NCc3ccccc3OC)n2)cc1
[3]
  EC50: 8.22 µM (active)
[4]
  EC50: 13 µM (not active)
[5]
  EC50: 10.3 µM (not active)

## Cc1csc(NC(=O)c2ccc(N3CCCC3=O)cc2)n1
HEK293 [13]
  AC50: 1.52 µM (active)
[14]
  AC50: 1.93 µM (active)
[19]
  AC50: > 52 µM (inactive)
[15]
  AC50: 2.05 µM (active)
[17]
  AC50: > 52 µM (inactive)

## CCCC#Cc1ccc2c(c1)O[C@H](CN(C)Cc1ccccc1)[C@@H](C)CN([C@H](C)CO)S2(=O)=O
Paired box protein Pax-8
  AC50: 16.2 µM (active)
[20]
  AC50: 58.3 µM (active)
